Experimental data published in US12351576B2, “FGFR inhibitor, preparation method therefor and application thereof” (Abbisko Therapeutics Co., Ltd., priority 2018, dated 2025).
Like-named read-outs stand apart in the source and are kept apart here.

Experiments:
[1] = system: H1581 lung cancer cells (FGFR1 gene amplification); test: Cell proliferation assay (Cell Titer Glo), H1581; type: cell-based; settings: 3 days, CTG, read-out: Cellular IC50 (nM) H1581
Method: (§1) II. Cell Proliferation Assay (Cell Titer Glo(CTG) Assay)
(§2) The FGFR signal pathway dependent inhibitory effect of the compound in the present invention on cell proliferation was assessed by survival test using CTG reagent (Promega, 4G7573). Cell lines representative of a variety of tumor types, including H1581 lung cancer cells (FGFR1 gene amplification), Snu-16 gastric cancer cells (FGFR2 gene amplification), and RT112 bladder carcinoma cells (FGFR3-TACC3 fusion) from Nanjing Cobioer Biosciences, were selected for the assay. The specific experimental procedure was as follows: • 1. 90 μL of cells were seeded into a 96-well plate processed with TCM (Costar 43904), and incubated overnight at 37° C. in a 5% CO2 incubator; afterwards, 10 μL of the culture medium containing the compound at 10 fold of its final concentration was added; • 2. The dose-dependent effect was evaluated by a serial dilution of the test compound, starting from 10 μM or a lower concentration. • 3. The cells were incubated at 37° C. under 5% C02 for 3 days, then added 50 μL CTG, and read the data with Envision (Pelkin Elmer) to quantify the ATP level in the cells. The ATP levels in cells with treatment of inhibitor at a variety of concentrations were compared with those in cells of the control group (in which DMSO was added into the medium) to evaluate the compound percent inhibition of cell proliferation/survival. • 4. The compound half growth inhibitory concentration (IC50) was determined in Graphpad Prism by 4-parameter curve fitting.

[2] = system: Snu-16 gastric cancer cells (FGFR2 gene amplification); test: Cell proliferation assay (Cell Titer Glo), Snu-16; type: cell-based; settings: Homo sapiens, SNU-16, 72 h, Snu-16 cells, 3 days, CTG, read-out: Cellular IC50 (nM) Sun16
Method: as §1, §2

FGFR2 = FGFR2 (Homo sapiens (Human), UniProt P21802); test: In vitro biochemical kinase assay (Caliper Assay), FGFR2; settings: enzyme 2.5 nM, ATP 1 μM, 40 minutes; read-out: Enzymatic activity IC50(nM) FGFR2
Chain of FGFR2 (P21802 22-821): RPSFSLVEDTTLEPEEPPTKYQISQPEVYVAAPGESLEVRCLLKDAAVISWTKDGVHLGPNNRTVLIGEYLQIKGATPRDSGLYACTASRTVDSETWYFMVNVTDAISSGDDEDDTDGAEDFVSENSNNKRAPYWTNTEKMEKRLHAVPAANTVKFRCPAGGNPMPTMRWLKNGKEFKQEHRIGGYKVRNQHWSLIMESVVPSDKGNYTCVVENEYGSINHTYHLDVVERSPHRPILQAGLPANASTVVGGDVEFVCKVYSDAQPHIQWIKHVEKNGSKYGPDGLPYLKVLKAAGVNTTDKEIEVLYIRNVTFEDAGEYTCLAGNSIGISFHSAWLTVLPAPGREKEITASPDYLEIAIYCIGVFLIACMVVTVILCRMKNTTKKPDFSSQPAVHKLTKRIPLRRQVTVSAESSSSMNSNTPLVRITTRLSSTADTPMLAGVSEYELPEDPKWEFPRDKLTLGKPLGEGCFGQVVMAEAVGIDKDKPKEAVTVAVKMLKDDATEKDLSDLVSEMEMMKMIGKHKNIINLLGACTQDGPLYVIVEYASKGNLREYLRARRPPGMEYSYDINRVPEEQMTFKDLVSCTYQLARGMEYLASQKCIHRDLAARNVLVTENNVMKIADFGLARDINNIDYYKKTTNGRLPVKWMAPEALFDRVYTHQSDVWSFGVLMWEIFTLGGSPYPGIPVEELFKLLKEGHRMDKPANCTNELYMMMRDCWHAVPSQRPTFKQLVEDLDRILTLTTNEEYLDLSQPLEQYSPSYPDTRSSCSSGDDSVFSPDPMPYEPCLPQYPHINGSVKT
Method: (§3) I. In Vitro Biochemical Kinase Assay of FGFR 1˜3
(§4) Caliper Assay was used in the present invention to determine the inhibitory activities of the compounds against FGFR1, FGFR2, and FGFR3. The specific experimental procedure was as follows: • 1. The kinase reaction in the present invention was carried out in 384-well plates, the kinase(Carna) at a certain concentration and ATP at a certain concentration and 1 μM of peptide FAM-P22 (GL Biochem, Cat. No. 112393)) was incubated to react for a certain time at 28° C. in a reaction system consisting of 50 mM HEPES, […], 0.0015% Brij-35 and basic kinase buffer; for FGFR1, the enzyme concentration was 0.25 nM and ATP concentration was 382 μM and the reaction time was 20 minutes; for FGFR2, the enzyme concentration was 2.5 nM, ATP concentration was 1 μM, and the reaction time was 40 minutes; for FGFR3, the enzyme concentration was 8 nM, ATP concentration was 4.7 μM, and the reaction time was 30 minutes: • 2. The reaction was terminated with a stop solution (100 mM HEPES, pH 7.5, 0.2% Caliper coating, reagent, 50 mM EDTA and 0.015% Brij35); • 3. The plate with the terminated kinase reaction was transferred to the Caliper workstation to read the data; • 4. the phosphorylated and unphosphorylated peptides were separated by the Caliper microfluid migration shift technique, and the analyte was transferred by a constant buffer flow through the chip, the migration of the substrate peptide was monitored by the labeled fluorescent signal, and the kinase activity was calculated by the amount of the phosphate-based peptide formed. • 5. IC50 was determined by non-linear regression analysis of percent inhibition at different concentration level of the compound.

FGFR3 = FGFR3 (Homo sapiens (Human), UniProt P22607); test: In vitro biochemical kinase assay (Caliper Assay), FGFR3; settings: enzyme 8 nM, ATP 4.7 μM, 30 minutes; read-out: Enzymatic activity IC50(nM) FGFR3
Chain of FGFR3 (P22607 23-806): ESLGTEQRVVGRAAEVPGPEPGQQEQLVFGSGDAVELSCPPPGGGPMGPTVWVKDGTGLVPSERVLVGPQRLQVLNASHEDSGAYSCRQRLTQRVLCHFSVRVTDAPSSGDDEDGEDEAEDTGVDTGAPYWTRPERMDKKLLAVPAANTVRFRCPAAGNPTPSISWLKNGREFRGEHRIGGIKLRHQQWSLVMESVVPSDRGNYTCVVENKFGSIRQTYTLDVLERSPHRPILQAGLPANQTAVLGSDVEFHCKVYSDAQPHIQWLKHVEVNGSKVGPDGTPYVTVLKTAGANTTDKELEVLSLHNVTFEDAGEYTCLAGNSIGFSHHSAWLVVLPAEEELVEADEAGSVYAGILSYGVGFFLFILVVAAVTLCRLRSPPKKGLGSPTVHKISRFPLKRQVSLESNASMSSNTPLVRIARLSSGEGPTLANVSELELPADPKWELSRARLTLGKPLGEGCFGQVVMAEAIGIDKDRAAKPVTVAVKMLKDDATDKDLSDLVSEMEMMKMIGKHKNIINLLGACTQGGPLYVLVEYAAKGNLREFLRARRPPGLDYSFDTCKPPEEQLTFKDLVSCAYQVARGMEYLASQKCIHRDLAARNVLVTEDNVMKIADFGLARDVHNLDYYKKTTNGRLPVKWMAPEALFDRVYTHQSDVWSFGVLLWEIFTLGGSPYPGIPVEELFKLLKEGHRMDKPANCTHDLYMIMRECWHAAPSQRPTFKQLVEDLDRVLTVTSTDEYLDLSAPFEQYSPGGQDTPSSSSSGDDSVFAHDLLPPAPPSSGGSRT
Method: as §3, §4

FGFR1 = FGFR1 (Homo sapiens (Human), UniProt P11362); test: In vitro biochemical kinase assay (Caliper Assay), FGFR1; settings: enzyme 0.25 nM, ATP 382 μM, 20 minutes; read-out: Enzymatic activity IC50(nM) FGFR1
Chain of FGFR1 (P11362 22-822): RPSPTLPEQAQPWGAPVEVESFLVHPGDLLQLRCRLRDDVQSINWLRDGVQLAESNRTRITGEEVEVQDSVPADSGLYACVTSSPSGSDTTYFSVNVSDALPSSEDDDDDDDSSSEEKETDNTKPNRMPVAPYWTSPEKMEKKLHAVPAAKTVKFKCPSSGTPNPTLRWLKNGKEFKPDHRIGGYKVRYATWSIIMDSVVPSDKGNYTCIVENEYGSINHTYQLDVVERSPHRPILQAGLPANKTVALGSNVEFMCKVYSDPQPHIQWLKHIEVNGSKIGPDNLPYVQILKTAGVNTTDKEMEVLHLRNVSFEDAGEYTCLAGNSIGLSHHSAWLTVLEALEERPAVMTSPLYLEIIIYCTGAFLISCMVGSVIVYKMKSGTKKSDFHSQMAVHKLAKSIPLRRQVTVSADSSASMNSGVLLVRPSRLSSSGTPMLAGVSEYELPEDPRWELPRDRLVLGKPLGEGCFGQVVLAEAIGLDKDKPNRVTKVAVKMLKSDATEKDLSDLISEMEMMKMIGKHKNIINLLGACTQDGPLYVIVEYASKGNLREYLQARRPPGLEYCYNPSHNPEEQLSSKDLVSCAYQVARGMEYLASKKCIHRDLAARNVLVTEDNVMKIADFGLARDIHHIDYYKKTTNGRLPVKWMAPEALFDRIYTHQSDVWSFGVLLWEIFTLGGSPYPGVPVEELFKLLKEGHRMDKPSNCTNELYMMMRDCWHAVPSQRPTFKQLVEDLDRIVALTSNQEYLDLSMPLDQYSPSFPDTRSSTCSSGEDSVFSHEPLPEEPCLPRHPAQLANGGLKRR
Method: as §3, §4

[3] = system: RT112 bladder carcinoma cells (FGFR3-TACC3 fusion); test: Cell proliferation assay (Cell Titer Glo), RT112; type: cell-based; settings: Homo sapiens, RT-112, 72 h, 3 days, CTG, read-out: Cellular IC50 (nM) RT112
Method: as §1, §2

| IC50 [1] [nM] | IC50 [2] [nM] | IC50 (FGFR2) [nM] | IC50 (FGFR3) [nM] | IC50 (FGFR1) [nM] | IC50 ([1]; Homo sapiens, NCI-H1581, 72 h) [nM] | IC50 [3] [nM] | IC50 ([2]; numeric values) [nM] | IC50 ([3]; numeric values) [nM] | Structure (SMILES) |
| --- | --- | --- | --- | --- | --- | --- | --- | --- | --- |
| 50 to 500 | 5 to 10 | ≤ 5 | ≤ 5 | 5 to 10 | – | – | – | – | COc1cc(OC)c(Cl)c(-c2cc3cnc(-c4cnn(C)c4)cc3n(C3CCOC3)c2=O)c1Cl (stereo in doubt) [Example 21, (R)-3-(2,6-dichloro-3,5-dimethoxyphenyl)-7-(1-methyl-1H-pyrazol-4-yl)-1-(tetrahydrofuran-3-yl)-1,6-naphthyridin-2(1H)-one] |
| – | 10 to 50 | 5 to 10 | 50 to 500 | 10 to 50 | 50 to 500 | 50 to 500 | – | – | COc1cc(OC)c(Cl)c(-c2cc3cnc(-c4cnn(C)c4)cc3n(C)c2=O)c1Cl [Example 2, 3-(2,6-dichloro-3,5-dimethoxyphenyl)-1-methyl-7-(1-methyl-1H-pyrazol-4-yl)-1,6-naphthyridin-2(1H)-one] |
| – | 10 to 50 | ≤ 5 | ≤ 5 | 10 to 50 | 50 to 500 | 10 to 50 | – | – | CCn1c(=O)c(-c2c(Cl)c(OC)cc(OC)c2Cl)cc2cnc(-c3cnn(CCN4CCOCC4)c3)cc21 [Example 10, 3-(2,6-dichloro-3,5-dimethoxyphenyl)-1-ethyl-7-(1-(2-morpholinoethyl)-1H-pyrazol-4-yl)-1,6-naphthyridin-2(1H)-one] |
| – | 10 to 50 | 5 to 10 | 50 to 500 | 50 to 500 | 50 to 500 | 50 to 500 | – | – | COc1cc(OC)c(Cl)c(-c2cc3cnc(-c4cnn(CCN5CCOCC5)c4)cc3n(C)c2=O)c1Cl [Example 15, 3-(2,6-dichloro-3,5-dimethoxyphenyl)-1-methyl-7-(1-(2-morpholinoethyl)-1H-pyrazol-4-yl)-1,6-naphthyridin-2(1H)-one] |
| – | 10 to 50 | 10 to 50 | – | 50 to 500 | 50 to 500 | 50 to 500 | – | – | COc1cc(OC)c(Cl)c(-c2cc3cnc(-c4ccc(C5(C#N)CCC5)nc4)cc3n(C3CCOC3)c2=O)c1Cl (centres unmarked) [Example 16, 1-(5-(3-(2,6-dichloro-3,5-dimethoxyphenyl)-2-oxo-1-(tetrahydrofuran-3-yl)-1,2-dihydro-1,6-naphthyridin-7-yl)pyridin-2-yl)cyclobutane-1-carbonitrile] |
| – | ≤ 5 | ≤ 5 | – | ≤ 5 | 10 to 50 | ≤ 5 | – | – | COc1cc(OC)c(F)c(-c2cc3cnc(-c4cnn(C)c4)cc3n(C3CCOC3)c2=O)c1F (centres unmarked) [Example 28, 3-(2,6-difluoro-3,5-dimethoxyphenyl)-7-(1-methyl-1H-pyrazol-4-yl)-1-(tetrahydrofuran-3-yl)-1,6-naphthyridin-2(1H)-one] |
| – | – | ≤ 5 | – | 5 to 10 | 50 to 500 | – | 10.7 | 2.5 | COc1cc(OC)c(F)c(-c2cc3cnc(-c4ccc(C5(C#N)CCC5)nc4)cc3n(C3CCOC3)c2=O)c1F (centres unmarked) [Example 32, 1-(5-(3-(2,6-difluoro-3,5-dimethoxyphenyl)-2-oxo-1-(tetrahydrofuran-3-yl)-1,2-dihydro-1,6-naphthyridin-7-yl)pyridin-2-yl)cyclobutane-1-carbonitrile] |
| – | 5 to 10 | – | – | – | 50 to 500 | ≤ 5 | – | – | COc1cc(OC)c(F)c(-c2cc3cnc(-c4cnn(CCN5CCOCC5)c4)cc3n(C3CCOC3)c2=O)c1F (centres unmarked) [Example 35, 3-(2,6-difluoro-3,5-dimethoxyphenyl)-7-(1-(2-morpholinoethyl)-1H-pyrazol-4-yl)-1-(tetrahydrofuran-3-yl)-1,6-naphthyridin-2(1H)-one] |
